Measurements taken from ChEMBL document CHEMBL3779866, “Synthetic approaches, structure activity relationship and biological applications for pharmacologically attractive pyrazole/pyrazoline-thiazolidine-based hybrids” (Eur J Med Chem, 2016).
Values after ≈ are worked out from the molar mass of the structure shown. One block for each compound: values may come before it.

Experiments:
Staphylococcus aureus = experiment: Antimicrobial activity against Staphylococcus aureus MTCC 96 after 24 hrs by serial two-fold broth dilution method; type: functional; conditions: MTCC 96, 24 h
Bacillus subtilis = experiment: Antimicrobial activity against Bacillus subtilis MTCC 441 after 24 hrs by serial two-fold broth dilution method; type: functional; conditions: MTCC 441, 24 h
[1] = test system: Chromobacterium violaceum; experiment: Antimicrobial activity against Chromobacterium violaceum MTCC 2625 after 24 hrs by serial two-fold broth dilution method; type: functional; conditions: MTCC 2625, 24 h
Pseudomonas aeruginosa = experiment: Antimicrobial activity against Pseudomonas aeruginosa MTCC 741 after 24 hrs by serial two-fold broth dilution method; type: functional; conditions: MTCC 741, 24 h
[2] = test system: Lysinibacillus sphaericus; experiment: Antimicrobial activity against Bacillus sphaericus MTCC 11 after 24 hrs by serial two-fold broth dilution method; type: functional; conditions: MTCC 11, 24 h
Klebsiella aerogenes = experiment: Antimicrobial activity against Klebsiella aerogenes MTCC 39 after 24 hrs by serial two-fold broth dilution method; type: functional; conditions: MTCC 39, 24 h
Escherichia coli [3] = experiment: Antibacterial activity against Escherichia coli ATCC 25922 after 24 to 48 hrs by two-fold microdilution susceptibility assay; type: functional
Escherichia coli [4] = experiment: Antimicrobial activity against Escherichia coli after 24 hrs by serial dilution method; type: functional
Rattus norvegicus = experiment: Antiinflammatory activity against albino rat assessed as inhibition of carrageenin induced paw edema at 100 mg/kg, po administered for 1 hr followed by carrageenin challenge measured after 4 hrs; type: functional
Candida albicans [5] = experiment: Antifungal activity against Candida albicans after 24 to 48 hrs by two-fold microdilution susceptibility assay; type: functional
HepG2 = experiment: Cytotoxicity against human HepG2 cells assessed as growth inhibition after 48 hrs by SRB assay; type: functional; conditions: HepG2, 48 h
Candida albicans [6] = experiment: Antimicrobial activity against Candida albicans ATCC 10231 by serial two-fold broth dilution method; type: functional
[7] = test system: Trichophyton mentagrophytes; experiment: Antimicrobial activity against Trichophyton mentagrophytes IFO40996 by serial two-fold broth dilution method; type: functional
Trichophyton rubrum = experiment: Antimicrobial activity against Trichophyton rubrum IFO9185 by serial two-fold broth dilution method; type: functional
Aspergillus fumigatus = experiment: Antimicrobial activity against Aspergillus fumigatus HIC6094 by serial two-fold broth dilution method; type: functional
HeLa = experiment: Cytotoxicity against human HeLa cells assessed as growth inhibition after 48 hrs by SRB assay; type: functional
[8] = Cytotoxicity against human RPMI8226 cells assessed as growth inhibition after 48 hrs by SRB assay; type: functional; conditions: RPMI-8226, 48 h
EKVX = experiment: Cytotoxicity against human EKVX cells assessed as growth inhibition after 48 hrs by SRB assay; type: functional
[9] = Cytotoxicity against human HOP92 cells assessed as growth inhibition after 48 hrs by SRB assay; type: functional; conditions: HOP-92, 48 h
NCI-H522 = experiment: Cytotoxicity against human NCI-H522 cells assessed as growth inhibition after 48 hrs by SRB assay; type: functional; conditions: NCI-H522, 48 h
CCRF-CEM = experiment: Cytotoxicity against human CCRF-CEM cells assessed as growth inhibition after 48 hrs by SRB assay; type: functional
Leishmania donovani = experiment: Antiparasitic activity against Leishmania donovani by cell based assay; type: functional, organism-based
Plasmodium falciparum = experiment: Antiparasitic activity against Plasmodium falciparum by cell based assay; type: functional, organism-based

MIC (Escherichia coli [3]): 25 µg/mL (≈ 46.6 µM)
Compound: Cc1ccc(N2C(=O)CS/C2=N/N=C\c2cn(-c3ccccc3)nc2-c2ccc(Br)s2)cc1

MIC (Candida albicans [5]): 12.5 µg/mL (≈ 22.4 µM)
Compound: O=C1CS/C(=N/N=C\c2cn(-c3ccccc3)nc2-c2ccc(Br)s2)N1c1ccc(Cl)cc1

MIC (Candida albicans [6]): 14 µg/mL (≈ 24.1 µM) | MIC [7]: 14 µg/mL (≈ 24.1 µM) | MIC (Trichophyton rubrum): 14 µg/mL (≈ 24.1 µM) | MIC (Aspergillus fumigatus): 14 µg/mL (≈ 24.1 µM)
Compound: Cc1nn(-c2ccccc2)c(C)c1-c1cc(-c2ccc(Cl)cc2)nc(N2C(=O)CSC2c2ccc(N(C)C)cc2)n1 (centres undefined)

MIC (Candida albicans [6]): 14 µg/mL (≈ 26.5 µM) | MIC [7]: 14 µg/mL (≈ 26.5 µM) | MIC (Trichophyton rubrum): 14 µg/mL (≈ 26.5 µM) | MIC (Aspergillus fumigatus): 14 µg/mL (≈ 26.5 µM)
Compound: Cc1nn(-c2ccccc2)c(C)c1-c1cc(-c2ccc(Cl)cc2)nc(N2C(=O)CSC2c2ccco2)n1 (centres undefined)

The remaining lines, values behind:

Compound: CC1(C)S[C@@H]2[C@H](NC(=O)Cc3ccccc3)C(=O)N2[C@H]1C(=O)O [PENICILLIN G]
MIC (Staphylococcus aureus): 1.56 µg/mL (≈ 4.67 µM) | MIC (Bacillus subtilis): 1.56 µg/mL (≈ 4.67 µM) | MIC [1]: 1.56 µg/mL (≈ 4.67 µM) | MIC (Pseudomonas aeruginosa): 1.56 µg/mL (≈ 4.67 µM) | MIC [2]: 1.56 µg/mL (≈ 4.67 µM) | MIC (Klebsiella aerogenes): 1.56 µg/mL (≈ 4.67 µM)

Compound: CC(=O)OC[C@@H]1O[C@@H](N2C(=O)/C(=C/c3cn(-c4ccccc4)nc3-c3ccc(Br)cc3)SC2=S)[C@@H](OC(C)=O)[C@H](OC(C)=O)[C@@H]1OC(C)=O
MIC (Escherichia coli [4]): 143 µg/mL (≈ 185 µM)

Compound: CN(C)[C@@H]1C(O)=C(C(N)=O)C(=O)[C@@]2(O)C(O)=C3C(=O)c4c(O)cccc4[C@@](C)(O)[C@H]3C[C@@H]12 [TETRACYCLINE]
MIC (Escherichia coli [4]): 39 µg/mL (≈ 87.8 µM)

Compound: CC(C(=O)O)c1cccc(C(=O)c2ccccc2)c1 (centres undefined) [KETOPROFEN]
inhibition in vivo at 100 mg/kg (Rattus norvegicus): 63%

Compound: C(=N\Nc1nc(-c2ccc3c(c2)CCCC3)cs1)/c1cn(-c2ccccc2)nc1-c1cc2ccccc2o1
GI50 (HepG2): 5 µg/mL (≈ 9.7 µM)

Compound: Cc1ccc(N2C(=O)CSC2c2cn(-c3ccccc3)nc2-c2cc3ccccc3o2)cc1 (centres undefined)
GI50 (HeLa): 1.2 µg/mL (≈ 2.66 µM)

Compound: O=C1NC(=S)S/C1=C\c1cn(-c2ccccc2)nc1-c1ccccc1
GI50 [8]: 2.52 µM | GI50 (EKVX): 3.03 µM | GI50 [9]: 0.62 µM | CC50 ([9]; read-out: LC50 (the source's name)): > 100 µM | GI50 (NCI-H522): 2.96 µM | GI50 (CCRF-CEM): 2.5 µM

Compound: CC1=NN(C2=NC(=O)CS2)C(c2ccccc2)C1 (centres undefined)
IC50 (Leishmania donovani): > 30 µg/mL | IC50 (Plasmodium falciparum): > 5 µg/mL
